Earlier results, collected in patent publication US20190358249A1, “Injectable Combination Products Of Fosaprepitant And 5-HT3 Blocker” (Navinta III Inc, priority 2018, published 2019).
Entries after “also recorded” stand apart in the source; their conditions may differ. Counter-ions that a name gives are not always drawn. Values belong to the compound of their own block, whether it stands above or below them.

What was measured:
[1] = system: subjects receiving highly emetogenic cisplatin-based chemotherapy; conditions: added to ondansetron and dexamethasone
[2] = 1% w/v in water
[3] = precipitates when the pH is above the range

Structure (SMILES): C[C@@H](O[C@H]1OCCN(Cc2n[nH]c(=O)[nH]2)[C@H]1c1ccc(F)cc1)c1cc(C(F)(F)F)cc(C(F)(F)F)c1 [Aprepitant]
solubility in water (in words) (water): very low solubility; also recorded: minimal solubility; also recorded: practically insoluble
protection against CINV [1]: consistently superior protection

solubility in water (in words) (water): good solubility
Structure (SMILES): C[C@@H](O[C@H]1OCCN(Cc2nc(O)n(P(=O)(O)O)n2)[C@H]1c1ccc(F)cc1)c1cc(C(F)(F)F)cc(C(F)(F)F)c1 [Fosaprepitant]

pH of a 1% w/v solution in water [2]: about 4.6
pH above which free base precipitates [3]: 5.7-7
solubility in saline (saline): 0.8%
solubility in water (water): 3.2%
Structure (SMILES): Cc1nccn1CC1CCc2c(c3ccccc3n2C)C1=O (stereo not drawn) [Ondansetron]

solubility in aqueous media (across the physiological pH range): very soluble
solubility in water (in words) (water): freely soluble
Structure (SMILES): O=C1c2cccc3c2[C@H](CCC3)CN1[C@@H]1CN2CCC1CC2 [Palonosetron Hydrochloride]
